Laboratory results: PMC4457528, “Identification of Novel Small Molecule Inhibitors of Oncogenic RET Kinase” (PLoS ONE, 2015)
Like-named read-outs stand apart in the source and are kept apart here.

What was measured:
Test in all cases: KinomeScan kinase panel, single concentration 10 µM
Assay type in all cases: binding
KinomeScan kinase panel [1] = molecular target: T1, KinomeScan kinase panel (Homo sapiens, UniProt P15056, V600E); details: BRAF(V600E), 10 µM; read-out: score (%)
T1 construct: purchased DiscoveRx (KinomeScan)

KinomeScan kinase panel [2] = molecular target: T2, KinomeScan kinase panel (Homo sapiens, UniProt Q86UX6); details: kinase YANK3; 10 µM; read-out: score (%)
T2 construct: purchased DiscoveRx (KinomeScan)
T2 sequence (Q86UX6 whole entry): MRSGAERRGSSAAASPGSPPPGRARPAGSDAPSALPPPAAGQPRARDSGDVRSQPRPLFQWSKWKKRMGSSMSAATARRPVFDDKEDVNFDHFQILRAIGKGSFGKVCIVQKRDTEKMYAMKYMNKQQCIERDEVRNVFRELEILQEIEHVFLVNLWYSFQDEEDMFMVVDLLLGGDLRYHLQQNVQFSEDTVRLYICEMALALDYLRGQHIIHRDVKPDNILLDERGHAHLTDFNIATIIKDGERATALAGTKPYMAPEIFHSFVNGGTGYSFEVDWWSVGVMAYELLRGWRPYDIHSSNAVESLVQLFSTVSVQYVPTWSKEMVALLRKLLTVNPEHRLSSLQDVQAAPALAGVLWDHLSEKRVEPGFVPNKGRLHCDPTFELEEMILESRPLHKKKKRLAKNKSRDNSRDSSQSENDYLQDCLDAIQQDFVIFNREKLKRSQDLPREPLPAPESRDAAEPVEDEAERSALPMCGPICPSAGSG

KinomeScan kinase panel [3] = molecular target: T3, KinomeScan kinase panel (Homo sapiens, UniProt Q9UPE1); details: read-out: score (%)
T3 construct: purchased DiscoveRx (KinomeScan)

KinomeScan kinase panel [4] = molecular target: T4, KinomeScan kinase panel (Homo sapiens, UniProt Q6DT37); details: DMPK2, 10 µM; read-out: score (%)
T4 construct: purchased DiscoveRx (KinomeScan)
T4 sequence (Q6DT37 whole entry): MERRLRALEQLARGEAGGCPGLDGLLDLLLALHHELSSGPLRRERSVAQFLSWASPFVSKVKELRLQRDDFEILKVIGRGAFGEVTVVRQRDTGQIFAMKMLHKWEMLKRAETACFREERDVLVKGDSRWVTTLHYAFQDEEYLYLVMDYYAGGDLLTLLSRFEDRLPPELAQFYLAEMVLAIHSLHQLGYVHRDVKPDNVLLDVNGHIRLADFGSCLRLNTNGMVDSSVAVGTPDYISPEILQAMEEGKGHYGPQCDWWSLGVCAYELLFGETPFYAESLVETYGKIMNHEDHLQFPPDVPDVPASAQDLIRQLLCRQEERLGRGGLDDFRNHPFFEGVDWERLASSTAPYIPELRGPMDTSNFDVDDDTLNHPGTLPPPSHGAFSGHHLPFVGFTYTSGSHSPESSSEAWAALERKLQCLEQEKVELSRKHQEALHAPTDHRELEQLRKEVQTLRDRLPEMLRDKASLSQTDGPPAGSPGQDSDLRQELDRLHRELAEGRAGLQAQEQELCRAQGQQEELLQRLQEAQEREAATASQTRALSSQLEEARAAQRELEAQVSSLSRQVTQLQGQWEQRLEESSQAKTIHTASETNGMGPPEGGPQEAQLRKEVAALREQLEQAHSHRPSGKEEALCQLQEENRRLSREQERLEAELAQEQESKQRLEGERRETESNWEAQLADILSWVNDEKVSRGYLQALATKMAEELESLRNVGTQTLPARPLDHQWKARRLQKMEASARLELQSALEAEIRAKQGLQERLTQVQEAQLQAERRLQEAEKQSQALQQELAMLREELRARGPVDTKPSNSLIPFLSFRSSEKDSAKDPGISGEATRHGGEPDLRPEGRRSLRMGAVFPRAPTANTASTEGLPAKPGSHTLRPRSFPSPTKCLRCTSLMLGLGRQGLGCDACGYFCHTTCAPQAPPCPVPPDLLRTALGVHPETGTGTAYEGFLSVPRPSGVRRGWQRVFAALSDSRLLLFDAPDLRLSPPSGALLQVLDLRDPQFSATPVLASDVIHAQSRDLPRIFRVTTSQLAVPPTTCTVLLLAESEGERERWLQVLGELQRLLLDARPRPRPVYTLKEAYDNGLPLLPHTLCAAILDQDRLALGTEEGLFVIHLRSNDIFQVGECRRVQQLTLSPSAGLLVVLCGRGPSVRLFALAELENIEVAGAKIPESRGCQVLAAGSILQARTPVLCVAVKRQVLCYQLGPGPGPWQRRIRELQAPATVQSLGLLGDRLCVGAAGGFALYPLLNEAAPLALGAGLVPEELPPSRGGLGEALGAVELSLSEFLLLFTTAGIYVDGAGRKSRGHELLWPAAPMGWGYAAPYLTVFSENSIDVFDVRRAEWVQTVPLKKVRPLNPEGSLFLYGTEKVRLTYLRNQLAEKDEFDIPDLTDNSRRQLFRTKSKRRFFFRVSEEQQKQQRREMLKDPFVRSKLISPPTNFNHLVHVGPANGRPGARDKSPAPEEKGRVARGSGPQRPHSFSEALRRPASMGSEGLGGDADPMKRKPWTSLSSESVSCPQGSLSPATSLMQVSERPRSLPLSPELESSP

KinomeScan kinase panel [5] = molecular target: T5, KinomeScan kinase panel (Homo sapiens, UniProt P31152); details: ERK4, 10 µM; read-out: score (%)
T5 construct: purchased DiscoveRx (KinomeScan)
T5 sequence (P31152 whole entry): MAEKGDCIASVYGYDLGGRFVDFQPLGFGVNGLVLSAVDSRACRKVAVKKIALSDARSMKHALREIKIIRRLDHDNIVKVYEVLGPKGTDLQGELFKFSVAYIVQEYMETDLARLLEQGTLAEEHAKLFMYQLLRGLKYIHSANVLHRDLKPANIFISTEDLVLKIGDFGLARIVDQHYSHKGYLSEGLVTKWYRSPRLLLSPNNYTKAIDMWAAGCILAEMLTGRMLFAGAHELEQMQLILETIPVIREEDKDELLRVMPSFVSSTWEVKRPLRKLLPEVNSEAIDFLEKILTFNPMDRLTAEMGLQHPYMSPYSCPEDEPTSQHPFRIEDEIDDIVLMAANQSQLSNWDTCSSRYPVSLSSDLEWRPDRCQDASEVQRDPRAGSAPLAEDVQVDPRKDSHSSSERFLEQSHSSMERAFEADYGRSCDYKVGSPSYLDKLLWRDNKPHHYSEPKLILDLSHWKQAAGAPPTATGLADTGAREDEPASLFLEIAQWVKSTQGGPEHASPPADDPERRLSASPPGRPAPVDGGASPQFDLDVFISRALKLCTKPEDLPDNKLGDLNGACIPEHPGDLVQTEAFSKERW

KinomeScan kinase panel [6] = molecular target: T6, KinomeScan kinase panel (Homo sapiens, UniProt Q15349); details: 10 µM, read-out: score (%)
T6 construct: purchased DiscoveRx (KinomeScan)
T6 sequence (Q15349 whole entry): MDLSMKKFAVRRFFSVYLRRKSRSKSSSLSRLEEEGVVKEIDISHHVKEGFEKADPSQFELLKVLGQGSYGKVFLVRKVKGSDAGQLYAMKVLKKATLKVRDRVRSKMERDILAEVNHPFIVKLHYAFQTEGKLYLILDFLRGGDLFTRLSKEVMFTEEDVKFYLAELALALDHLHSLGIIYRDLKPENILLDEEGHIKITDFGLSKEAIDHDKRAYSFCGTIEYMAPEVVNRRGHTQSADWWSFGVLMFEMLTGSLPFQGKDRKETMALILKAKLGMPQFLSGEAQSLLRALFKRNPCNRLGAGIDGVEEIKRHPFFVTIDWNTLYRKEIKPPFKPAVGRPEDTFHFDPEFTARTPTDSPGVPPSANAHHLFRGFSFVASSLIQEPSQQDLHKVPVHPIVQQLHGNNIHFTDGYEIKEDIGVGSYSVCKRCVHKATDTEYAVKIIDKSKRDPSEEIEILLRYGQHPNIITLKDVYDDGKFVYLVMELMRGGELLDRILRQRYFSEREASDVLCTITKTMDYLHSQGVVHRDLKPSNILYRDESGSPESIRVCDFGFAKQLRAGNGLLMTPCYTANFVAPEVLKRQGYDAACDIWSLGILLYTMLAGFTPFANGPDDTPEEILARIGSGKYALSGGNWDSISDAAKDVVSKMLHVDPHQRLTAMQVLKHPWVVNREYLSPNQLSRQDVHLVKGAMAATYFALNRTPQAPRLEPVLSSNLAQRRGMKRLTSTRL

KinomeScan kinase panel [7] = molecular target: T7, KinomeScan kinase panel (Homo sapiens, UniProt Q8IYT8); details: kinase ULK2; 10 µM; read-out: score (%)
T7 construct: purchased DiscoveRx (KinomeScan)
T7 sequence (Q8IYT8 1-1036): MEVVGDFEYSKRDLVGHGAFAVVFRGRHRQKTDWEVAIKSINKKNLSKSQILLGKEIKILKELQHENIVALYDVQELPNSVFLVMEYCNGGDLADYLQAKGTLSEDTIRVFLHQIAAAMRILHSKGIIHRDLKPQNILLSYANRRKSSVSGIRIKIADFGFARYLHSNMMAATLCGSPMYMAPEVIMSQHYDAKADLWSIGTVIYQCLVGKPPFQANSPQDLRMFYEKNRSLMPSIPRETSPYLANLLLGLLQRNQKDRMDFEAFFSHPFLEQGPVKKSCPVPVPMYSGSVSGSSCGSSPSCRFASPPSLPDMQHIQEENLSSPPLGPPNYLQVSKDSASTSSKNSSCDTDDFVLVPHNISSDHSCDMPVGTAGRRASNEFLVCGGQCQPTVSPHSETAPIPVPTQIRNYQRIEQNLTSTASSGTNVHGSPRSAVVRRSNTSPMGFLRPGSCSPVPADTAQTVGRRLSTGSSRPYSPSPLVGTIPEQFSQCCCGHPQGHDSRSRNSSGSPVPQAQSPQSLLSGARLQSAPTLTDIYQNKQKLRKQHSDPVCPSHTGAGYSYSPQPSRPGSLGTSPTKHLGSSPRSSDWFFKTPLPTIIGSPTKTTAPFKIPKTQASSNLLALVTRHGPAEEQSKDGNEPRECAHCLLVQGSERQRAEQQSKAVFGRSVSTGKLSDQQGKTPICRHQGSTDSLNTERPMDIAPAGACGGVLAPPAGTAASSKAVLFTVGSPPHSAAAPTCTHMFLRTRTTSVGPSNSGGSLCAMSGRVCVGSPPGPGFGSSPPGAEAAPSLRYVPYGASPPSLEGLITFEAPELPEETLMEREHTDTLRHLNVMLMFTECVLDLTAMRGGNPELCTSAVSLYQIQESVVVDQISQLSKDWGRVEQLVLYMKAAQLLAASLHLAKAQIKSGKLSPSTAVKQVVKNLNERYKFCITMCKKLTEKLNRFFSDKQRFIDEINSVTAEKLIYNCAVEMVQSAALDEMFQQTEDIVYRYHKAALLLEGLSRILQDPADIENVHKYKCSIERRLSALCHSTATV

KinomeScan kinase panel [8] = molecular target: T8, KinomeScan kinase panel (Homo sapiens, UniProt Q15303); details: ERBB4, 10 µM; read-out: score (%)
T8 construct: purchased DiscoveRx (KinomeScan)
T8 sequence (Q15303 26-1308): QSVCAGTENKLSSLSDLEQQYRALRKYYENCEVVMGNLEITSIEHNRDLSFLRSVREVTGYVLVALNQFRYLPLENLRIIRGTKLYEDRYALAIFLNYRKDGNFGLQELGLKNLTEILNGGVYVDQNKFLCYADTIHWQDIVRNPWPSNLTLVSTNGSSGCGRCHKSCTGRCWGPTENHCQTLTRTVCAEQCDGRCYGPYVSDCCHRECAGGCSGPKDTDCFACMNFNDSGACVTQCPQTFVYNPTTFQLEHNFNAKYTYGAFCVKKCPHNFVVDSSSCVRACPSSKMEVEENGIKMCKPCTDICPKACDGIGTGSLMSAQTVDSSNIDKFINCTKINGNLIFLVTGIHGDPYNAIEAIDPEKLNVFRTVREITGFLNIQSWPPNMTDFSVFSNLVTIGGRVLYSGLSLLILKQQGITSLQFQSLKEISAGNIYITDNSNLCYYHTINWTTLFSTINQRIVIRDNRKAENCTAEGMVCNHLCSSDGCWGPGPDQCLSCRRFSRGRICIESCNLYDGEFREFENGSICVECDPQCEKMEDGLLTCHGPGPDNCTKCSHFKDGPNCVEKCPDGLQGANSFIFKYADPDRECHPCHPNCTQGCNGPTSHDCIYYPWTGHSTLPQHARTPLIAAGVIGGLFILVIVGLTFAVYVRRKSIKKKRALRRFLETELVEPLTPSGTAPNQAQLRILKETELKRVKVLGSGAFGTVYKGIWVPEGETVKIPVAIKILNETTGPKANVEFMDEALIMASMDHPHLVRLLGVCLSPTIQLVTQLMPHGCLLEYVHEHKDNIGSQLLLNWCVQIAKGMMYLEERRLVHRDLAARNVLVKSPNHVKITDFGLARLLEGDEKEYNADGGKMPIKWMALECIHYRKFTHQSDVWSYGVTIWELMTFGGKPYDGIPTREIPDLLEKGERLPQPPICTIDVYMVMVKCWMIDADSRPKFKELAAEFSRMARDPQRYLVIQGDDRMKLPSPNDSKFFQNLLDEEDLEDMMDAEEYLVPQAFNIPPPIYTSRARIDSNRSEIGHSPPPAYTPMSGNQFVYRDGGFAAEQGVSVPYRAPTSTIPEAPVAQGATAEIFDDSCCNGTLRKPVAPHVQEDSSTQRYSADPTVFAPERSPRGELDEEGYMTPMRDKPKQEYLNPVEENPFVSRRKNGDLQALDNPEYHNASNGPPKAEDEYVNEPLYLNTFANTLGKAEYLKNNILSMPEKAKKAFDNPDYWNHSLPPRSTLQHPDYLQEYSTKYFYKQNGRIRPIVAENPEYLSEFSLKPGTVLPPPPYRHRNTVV

KinomeScan kinase panel [9] = molecular target: T9, KinomeScan kinase panel (Homo sapiens, UniProt P54753); details: EPHB3, 10 µM; read-out: score (%)
T9 construct: purchased DiscoveRx (KinomeScan)
T9 sequence (P54753 34-998): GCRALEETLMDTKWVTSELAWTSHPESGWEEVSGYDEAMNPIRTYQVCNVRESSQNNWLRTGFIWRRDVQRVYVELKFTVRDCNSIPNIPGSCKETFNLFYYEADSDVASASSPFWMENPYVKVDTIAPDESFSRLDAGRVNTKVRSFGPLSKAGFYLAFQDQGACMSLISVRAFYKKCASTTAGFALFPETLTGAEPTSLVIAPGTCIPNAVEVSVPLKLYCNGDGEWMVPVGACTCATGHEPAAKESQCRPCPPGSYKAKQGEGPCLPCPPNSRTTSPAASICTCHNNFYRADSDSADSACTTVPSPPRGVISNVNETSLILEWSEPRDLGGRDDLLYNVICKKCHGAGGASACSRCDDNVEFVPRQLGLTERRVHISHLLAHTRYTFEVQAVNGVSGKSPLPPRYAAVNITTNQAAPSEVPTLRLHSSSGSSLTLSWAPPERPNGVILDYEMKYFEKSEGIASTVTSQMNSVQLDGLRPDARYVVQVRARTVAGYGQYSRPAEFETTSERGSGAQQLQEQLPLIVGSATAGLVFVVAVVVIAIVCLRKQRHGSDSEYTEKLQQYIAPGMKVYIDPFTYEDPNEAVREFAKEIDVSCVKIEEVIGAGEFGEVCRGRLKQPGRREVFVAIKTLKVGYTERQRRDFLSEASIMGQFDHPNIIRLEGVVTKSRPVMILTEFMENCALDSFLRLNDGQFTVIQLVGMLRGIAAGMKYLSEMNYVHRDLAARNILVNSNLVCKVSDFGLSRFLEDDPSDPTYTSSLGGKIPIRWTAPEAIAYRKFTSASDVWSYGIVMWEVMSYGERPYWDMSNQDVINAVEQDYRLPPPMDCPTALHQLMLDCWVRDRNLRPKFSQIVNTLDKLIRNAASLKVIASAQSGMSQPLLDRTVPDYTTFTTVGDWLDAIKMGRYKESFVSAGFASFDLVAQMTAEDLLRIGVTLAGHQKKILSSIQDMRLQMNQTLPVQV

remaining binding at 10 µM (KinomeScan kinase panel [3]; SRPK3, 10 µM)	remaining binding at 10 µM (KinomeScan kinase panel [6]; RPS6KA2(Kin.Dom.1))	remaining binding at 10 µM (KinomeScan kinase panel [6]; RPS6KA2(Kin.Dom.2))	Compound	remaining binding at 10 µM (KinomeScan kinase panel [1])	remaining binding at 10 µM (KinomeScan kinase panel [2])	remaining binding at 10 µM (KinomeScan kinase panel [3]; kinase SRPK3, 10 µM)	remaining binding at 10 µM (KinomeScan kinase panel [4])	remaining binding at 10 µM (KinomeScan kinase panel [5])	remaining binding at 10 µM (KinomeScan kinase panel [6]; kinase RPS6KA2(Kin.Dom.1-N-terminal))	remaining binding at 10 µM (KinomeScan kinase panel [6]; kinase RPS6KA2(Kin.Dom.2-C-terminal))	remaining binding at 10 µM (KinomeScan kinase panel [7])	remaining binding at 10 µM (KinomeScan kinase panel [8])	remaining binding at 10 µM (KinomeScan kinase panel [9])	remaining binding at 10 µM (KinomeScan kinase panel [6]; kinase RSK3(Kin.Dom.1-N-terminal))	remaining binding at 10 µM (KinomeScan kinase panel [6]; kinase RSK3(Kin.Dom.2-C-terminal))
			CCN1CCN(Cc2ccc(NC(=O)c3ccc(C)c(NC(=O)c4cncc(-c5cccs5)c4)c3)cc2C(F)(F)F)CC1 [ALW-II-41-27]	0.55%	> 30%	> 30%	> 30%	> 30%	> 30%	> 30%	> 30%	1.3%	0.3%		
22%	7.4%	> 30%	CCN1CCN(Cc2ccc(NC(=O)c3ccc(C)c(/C=C/c4cnc5[nH]ccc5c4Cl)c3)cc2C(F)(F)F)CC1 [HG-6-63-01, (E)-3-(2-(4-chloro-1H-pyrrolo[2,3-b]pyridin-5-yl)vinyl)-N-(4-((4-ethylpiperazin-1-yl)methyl)-3-(trifluoromethyl)phenyl)-4-methylbenzamide]	0.2%	> 30%		14%	> 30%			27%	0.7%	11%		
			CCN1CCN(Cc2ccc(NC(=O)c3ccc(C)c(C#Cc4cccnc4)c3)cc2C(F)(F)F)CC1 [XMD15-44]	0.05%	75%	45%	> 30%	> 30%			50%	1.8%	0.25%	9.5%	30%
